Test results reported in patent publication US6525001B1, “Substituted pyrimidine and pyridine herbicides” (Mid-American Commercialization Corporation, priority 1997, dated 2003).

Tests used:
Assay type in all cases: in vivo
Set-up in all cases: key: 0 is no effect; 10 is complete control
[1] = tested on: pigweed (Amaranthus retroflexus); assay: Test B pre-/postemergence
Method in brief: (§1)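 Response scores run from 0, meaning no effect, to 10, meaning complete control, assigned by eye relative to controls twelve to sixteen days after spraying. Treatment was both preemergence on planted seed and postemergence on plants at the 1- to 4-leaf stage.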

[2] = tested on: giant foxtail (Setaria faberii); assay: Test B pre-/postemergence
Method in brief: as §1

[3] = tested on: bedstraw (Galium aparine); assay: Test B pre-/postemergence
Method in brief: as §1

[4] = tested on: cocklebur (Xanthium strumarium); assay: Test B pre-/postemergence
Method in brief: as §1

[5] = tested on: momingglory (Ipomoea hederacea); assay: Test B pre-/postemergence
Method in brief: as §1

[6] = tested on: rape (Brassica napus); assay: Test B pre-/postemergence
Method in brief: as §1

[7] = tested on: sugar beet (Beta vulgaris); assay: Test B pre-/postemergence
Method in brief: as §1

[8] = tested on: broadleaf signalgrass (Brachiaria decumbens); assay: Test B pre-/postemergence
Method in brief: as §1

[9] = tested on: velvetleaf (Abutilon theophrasti); assay: Test B pre-/postemergence
Method in brief: as §1

[10] = tested on: corn (Zea mays); assay: Test B pre-/postemergence
Method in brief: as §1

[11] = tested on: wheat (Triticum aestivum); assay: Test B pre-/postemergence
Method in brief: as §1

[12] = tested on: duck salad (Heteranthera limosa); assay: Test B flood test; conditions: for Plant response rating, Ducksalad: Postemergence (flood test species)
Method in brief: (§2)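 Each value is a visual injury score relative to controls, with 10 meaning complete control and 0 no effect. Evaluation took place twelve to sixteen days after the 2-leaf-stage plants were treated and kept in the greenhouse.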

[13] = tested on: rice (Oryza sativa); assay: Test B flood test; conditions: for Plant response rating, Rice: Postemergence (flood test species)
Method in brief: as §2

[14] = tested on: bamyardgrass (Echinochloa crus-galli); assay: Test B flood test; conditions: for Plant response rating, Barnyardgrass: Postemergence (flood test species)
Method in brief: as §2

[15] = tested on: smallflower flatsedge (Cyperus difformis); assay: Test B flood test; conditions: for Plant response rating, S. Flatsedge: Postemergence (flood test species)
Method in brief: as §2

[16] = Preemergence, Rate 62 g/ha, scale of 0 to 10
[17] = Rate 62 g/ha, Postemergence (flood test)
[18] = Rate 125 g/ha, Postemergence section (flood test species)

Cc1cnc(-n2cnc(C(F)(F)F)c2)nc1C(=O)c1cccc(OC(F)(F)F)c1 [Compound 63]
10: Plant response rating, Redroot pigweed ([1]; Rate 250 g/ha, Preemergence) | Plant response rating, Redroot pigweed ([1]; Rate 500 g/ha, Preemergence) | Plant response rating, Morningglory ([5]; Rate 250 g/ha, Postemergence) | Plant response rating, Morningglory ([5]; Rate 250 g/ha, Preemergence) | Plant response rating, Morningglory ([5]; Rate 500 g/ha, Postemergence) | Plant response rating, Morningglory ([5]; Rate 500 g/ha, Preemergence) | Plant response rating, Sugarbeets [7, 16] | Sugarbeets plant response rating ([7]; Rate 62 g/ha, Postemergence) | Plant response rating, Sugarbeets ([7]; Rate 125 g/ha, Preemergence) | Plant response rating, Sugarbeets ([7]; Rate 250 g/ha, Preemergence) | Plant response rating, Sugarbeets ([7]; Rate 500 g/ha, Preemergence) | Plant response rating, Velvetleaf ([9]; Rate 250 g/ha, Preemergence) | Plant response rating, Velvetleaf ([9]; Rate 500 g/ha, Preemergence)
0: Plant response rating, Corn [10, 16] | Corn plant response rating ([10]; Rate 62 g/ha, Postemergence) | Ducksalad plant response rating [12, 17] | Ducksalad plant response rating [12, 18] | Rice plant response rating [13, 17] | Rice plant response rating [13, 18]
6: Plant response rating, Giant foxtail ([2]; Rate 250 g/ha, Preemergence) | Plant response rating, Ducksalad ([12]; Rate 500 g/ha)
3: Plant response rating, Giant foxtail ([2]; Rate 125 g/ha, Preemergence) | Plant response rating, Giant foxtail ([2]; Rate 250 g/ha, Postemergence) | Plant response rating, Giant foxtail ([2]; Rate 500 g/ha, Postemergence) | Cocklebur plant response rating ([4]; Rate 125 g/ha, Postemergence) | Plant response rating, Rape [6, 16] | Rape plant response rating ([6]; Rate 62 g/ha, Postemergence) | Plant response rating, Rape ([6]; Rate 125 g/ha, Preemergence) | B. signalgrass plant response rating ([8]; Rate 125 g/ha, Postemergence) | Plant response rating, Wheat ([11]; Rate 250 g/ha, Preemergence) | Barnyardgrass plant response rating [14, 18] | Plant response rating, Barnyardgrass ([14]; Rate 250 g/ha) | Plant response rating, Barnyardgrass ([14]; Rate 500 g/ha)
4: Plant response rating, Bedstraw ([3]; Rate 125 g/ha, Preemergence) | Plant response rating, Bedstraw ([3]; Rate 250 g/ha, Preemergence) | Morningglory plant response rating ([5]; Rate 125 g/ha, Postemergence) | Rape plant response rating ([6]; Rate 125 g/ha, Postemergence) | Plant response rating, Rape ([6]; Rate 250 g/ha, Preemergence) | B. signalgrass plant response rating ([8]; Rate 62 g/ha, Postemergence) | B. signalgrass plant response rating ([8]; Rate 62 g/ha, Preemergence) | Plant response rating, B. signalgrass ([8]; Rate 250 g/ha, Postemergence) | Plant response rating, Wheat ([11]; Rate 500 g/ha, Preemergence) | S. Flatsedge plant response rating [15, 17]
5: Plant response rating, Bedstraw ([3]; Rate 250 g/ha, Postemergence) | Plant response rating, B. signalgrass ([8]; Rate 500 g/ha, Postemergence)
2: Plant response rating, Giant foxtail [2, 16] | Giant foxtail plant response rating ([2]; Rate 62 g/ha, Postemergence) | Giant foxtail plant response rating ([2]; Rate 125 g/ha, Postemergence) | Plant response rating, Bedstraw [3, 16] | Bedstraw plant response rating ([3]; Rate 62 g/ha, Postemergence) | Bedstraw plant response rating ([3]; Rate 125 g/ha, Postemergence) | Plant response rating, Morningglory [5, 16] | Morningglory plant response rating ([5]; Rate 62 g/ha, Postemergence) | Plant response rating, Velvetleaf [9, 16] | Velvetleaf plant response rating ([9]; Rate 62 g/ha, Postemergence) | Plant response rating, Velvetleaf ([9]; Rate 125 g/ha, Preemergence) | Corn plant response rating ([10]; Rate 125 g/ha, Postemergence) | Plant response rating, Corn ([10]; Rate 250 g/ha, Postemergence) | Plant response rating, Corn ([10]; Rate 500 g/ha, Postemergence) | Plant response rating, Corn ([10]; Rate 500 g/ha, Preemergence) | Plant response rating, Wheat [11, 16] | Wheat plant response rating ([11]; Rate 62 g/ha, Postemergence) | Wheat plant response rating ([11]; Rate 125 g/ha, Postemergence) | Plant response rating, Wheat ([11]; Rate 125 g/ha, Preemergence) | Plant response rating, Wheat ([11]; Rate 250 g/ha, Postemergence) | Plant response rating, Wheat ([11]; Rate 500 g/ha, Postemergence) | Plant response rating, Ducksalad ([12]; Rate 250 g/ha)
7: Plant response rating, Morningglory ([5]; Rate 125 g/ha, Preemergence) | Plant response rating, B. signalgrass ([8]; Rate 125 g/ha, Preemergence) | S. Flatsedge plant response rating [15, 18]
8: Plant response rating, Redroot pigweed [1, 16] | Redroot pigweed plant response rating ([1]; Rate 62 g/ha, Postemergence) | Plant response rating, Giant foxtail ([2]; Rate 500 g/ha, Preemergence) | Plant response rating, Bedstraw ([3]; Rate 500 g/ha, Postemergence) | Plant response rating, Bedstraw ([3]; Rate 500 g/ha, Preemergence) | Plant response rating, Cocklebur ([4]; Rate 500 g/ha, Postemergence) | Plant response rating, Rape ([6]; Rate 250 g/ha, Postemergence) | Plant response rating, Rape ([6]; Rate 500 g/ha, Postemergence) | Plant response rating, Rape ([6]; Rate 500 g/ha, Preemergence) | Plant response rating, B. signalgrass ([8]; Rate 250 g/ha, Preemergence) | Velvetleaf plant response rating ([9]; Rate 125 g/ha, Postemergence) | Plant response rating, Velvetleaf ([9]; Rate 250 g/ha, Postemergence) | Plant response rating, Velvetleaf ([9]; Rate 500 g/ha, Postemergence) | Plant response rating, S. Flatsedge ([15]; Rate 250 g/ha)
1: Plant response rating, Cocklebur [4, 16] | Cocklebur plant response rating ([4]; Rate 62 g/ha, Postemergence) | Plant response rating, Cocklebur ([4]; Rate 500 g/ha, Preemergence) | Plant response rating, Corn ([10]; Rate 125 g/ha, Preemergence) | Plant response rating, Corn ([10]; Rate 250 g/ha, Preemergence) | Plant response rating, Rice ([13]; Rate 250 g/ha) | Plant response rating, Rice ([13]; Rate 500 g/ha) | Barnyardgrass plant response rating [14, 17]
9: Redroot pigweed plant response rating ([1]; Rate 125 g/ha, Postemergence) | Plant response rating, Redroot pigweed ([1]; Rate 125 g/ha, Preemergence) | Plant response rating, Redroot pigweed ([1]; Rate 250 g/ha, Postemergence) | Plant response rating, Redroot pigweed ([1]; Rate 500 g/ha, Postemergence) | Sugarbeets plant response rating ([7]; Rate 125 g/ha, Postemergence) | Plant response rating, Sugarbeets ([7]; Rate 250 g/ha, Postemergence) | Plant response rating, Sugarbeets ([7]; Rate 500 g/ha, Postemergence) | Plant response rating, B. signalgrass ([8]; Rate 500 g/ha, Preemergence) | Plant response rating, S. Flatsedge ([15]; Rate 500 g/ha)
